Experimental data: PubChem BioAssay AID1259407 (Chemical Carcinogenesis Research Information System (CCRIS), 2018)
Calls of active or inactive are those of the source. No rule for the calls is given here.

System: CCRIS mutagenicity, Ames/micronucleus/aberration tests
Experiment: CCRIS mutagenicity studies
[1] = Test System: AMES SALMONELLA TYPHIMURIUM, Strain/Indicator: TA98, Metabolic Activation: NONE, Method: STANDARD PLATE
[2] = Test System: AMES SALMONELLA TYPHIMURIUM, Strain/Indicator: TA100, Metabolic Activation: NONE, Method: STANDARD PLATE
[3] = Test System: AMES SALMONELLA TYPHIMURIUM, Strain/Indicator: TA98, Metabolic Activation: NONE, Method: PREINCUBATION

O=C1c2cccc3ccc4ccc5cccc1c5c4c23
mutagenic call [1]: inactive; negative | mutagenic call [2]: inactive; negative

COc1nsc2c([N+](=O)[O-])cccc12
mutagenic call [2]: active; positive

CC(=O)Nc1ccc(C)c(N)c1
mutagenic call [3]: inactive; negative | mutagenic call (Test System: AMES SALMONELLA TYPHIMURIUM, Strain/Indicator: TA98, Metabolic Activation: RAT, LIVER, S-9, PHENOBARBITAL AND 5,6-BENZOFLAVONE, Method: PREINCUBATION): active; positive

Cc1c2ccccc2c(COS(=O)(=O)O)c2ccccc12
mutagenic call [3]: active; positive

Cc1c(N)nc(C(CC(N)=O)NCC(N)C(N)=O)nc1C(=O)NC(C(=O)NC(C)C(O)C(C)C(=O)NC(C(=O)NCCc1nc(-c2nc(C(=O)NCCCCN(CCCCN=C(N)N)C(=N)N)cs2)cs1)C(C)O)C(OC1OC(CO)C(O)C(O)C1OC1OC(CO)C(O)C(OC(N)=O)C1O)c1cnc[nH]1 (stereo unspecified)
mutagenic call (Test System: AMES SALMONELLA TYPHIMURIUM, Strain/Indicator: TA102, Metabolic Activation: NONE, Method: PREINCUBATION): active; positive

C=CC1CC=CCC1 (stereo unspecified)
mutagenic call (Test System: AMES SALMONELLA TYPHIMURIUM, Strain/Indicator: TA98, Metabolic Activation: HAMSTER, LIVER, S-9, AROCLOR 1254 (10%), Method: PREINCUBATION): inactive; negative | mutagenic call (Test System: AMES SALMONELLA TYPHIMURIUM, Strain/Indicator: TA98, Metabolic Activation: HAMSTER, LIVER, S-9, AROCLOR 1254, Method: PREINCUBATION): inactive; negative | mutagenic call [3]: inactive; negative | mutagenic call (Test System: AMES SALMONELLA TYPHIMURIUM, Strain/Indicator: TA98, Metabolic Activation: RAT, LIVER, S-9, AROCLOR 1254 (10%), Method: PREINCUBATION): inactive; negative | mutagenic call (Test System: AMES SALMONELLA TYPHIMURIUM, Strain/Indicator: TA98, Metabolic Activation: RAT, LIVER, S-9, AROCLOR 1254, Method: PREINCUBATION): inactive; negative | mutagenic call (Test System: AMES SALMONELLA TYPHIMURIUM, Strain/Indicator: TA100, Metabolic Activation: HAMSTER, LIVER, S-9, AROCLOR 1254 (10%), Method: PREINCUBATION): inactive; negative | mutagenic call (Test System: AMES SALMONELLA TYPHIMURIUM, Strain/Indicator: TA100, Metabolic Activation: HAMSTER, LIVER, S-9, AROCLOR 1254, Method: PREINCUBATION): inactive; negative | mutagenic call (Test System: AMES SALMONELLA TYPHIMURIUM, Strain/Indicator: TA100, Metabolic Activation: NONE, Method: PREINCUBATION): inactive; negative | mutagenic call (Test System: AMES SALMONELLA TYPHIMURIUM, Strain/Indicator: TA100, Metabolic Activation: RAT, LIVER, S-9, AROCLOR 1254 (10%), Method: PREINCUBATION): inactive; negative | mutagenic call (Test System: AMES SALMONELLA TYPHIMURIUM, Strain/Indicator: TA100, Metabolic Activation: RAT, LIVER, S-9, AROCLOR 1254, Method: PREINCUBATION): inactive; negative | mutagenic call (Test System: AMES SALMONELLA TYPHIMURIUM, Strain/Indicator: TA1535, Metabolic Activation: HAMSTER, LIVER, S-9, AROCLOR 1254 (10%), Method: PREINCUBATION): inactive; negative | mutagenic call (Test System: AMES SALMONELLA TYPHIMURIUM, Strain/Indicator: TA1535, Metabolic Activation: HAMSTER, LIVER, S-9, AROCLOR 1254, Method: PREINCUBATION): inactive; negative | mutagenic call (Test System: AMES SALMONELLA TYPHIMURIUM, Strain/Indicator: TA1535, Metabolic Activation: NONE, Method: PREINCUBATION): inactive; negative | mutagenic call (Test System: AMES SALMONELLA TYPHIMURIUM, Strain/Indicator: TA1535, Metabolic Activation: RAT, LIVER, S-9, AROCLOR 1254 (10%), Method: PREINCUBATION): inactive; negative | mutagenic call (Test System: AMES SALMONELLA TYPHIMURIUM, Strain/Indicator: TA1535, Metabolic Activation: RAT, LIVER, S-9, AROCLOR 1254, Method: PREINCUBATION): inactive; negative | mutagenic call (Test System: AMES SALMONELLA TYPHIMURIUM, Strain/Indicator: TA1537, Metabolic Activation: HAMSTER, LIVER, S-9, AROCLOR 1254 (10%), Method: PREINCUBATION): inactive; negative | mutagenic call (Test System: AMES SALMONELLA TYPHIMURIUM, Strain/Indicator: TA1537, Metabolic Activation: HAMSTER, LIVER, S-9, AROCLOR 1254, Method: PREINCUBATION): inactive; negative | mutagenic call (Test System: AMES SALMONELLA TYPHIMURIUM, Strain/Indicator: TA1537, Metabolic Activation: NONE, Method: PREINCUBATION): inactive; negative | mutagenic call (Test System: AMES SALMONELLA TYPHIMURIUM, Strain/Indicator: TA1537, Metabolic Activation: RAT, LIVER, S-9, AROCLOR 1254 (10%), Method: PREINCUBATION): inactive; negative | mutagenic call (Test System: AMES SALMONELLA TYPHIMURIUM, Strain/Indicator: TA1537, Metabolic Activation: RAT, LIVER, S-9, AROCLOR 1254, Method: PREINCUBATION): inactive; negative

NN(CCO)c1ccn([C@@H]2O[C@H](CO)[C@@H](O)[C@H]2O)c(=O)n1
mutagenic call (Test System: CHINESE HAMSTER V-79, Strain/Indicator: V-79/6-THIOGUANINE, Metabolic Activation: NONE, Method: REPLATING): inactive; negative

C=Cc1ccncc1
mutagenic call [1]: inactive; negative | mutagenic call (Test System: AMES SALMONELLA TYPHIMURIUM, Strain/Indicator: TA98, Metabolic Activation: RAT, LIVER, S-9, AROCLOR 1254, Method: STANDARD PLATE): inactive; negative | mutagenic call [2]: inactive; negative | mutagenic call (Test System: AMES SALMONELLA TYPHIMURIUM, Strain/Indicator: TA100, Metabolic Activation: RAT, LIVER, S-9, AROCLOR 1254, Method: STANDARD PLATE): inactive; negative | mutagenic call (Test System: AMES SALMONELLA TYPHIMURIUM, Strain/Indicator: TA1535, Metabolic Activation: NONE, Method: STANDARD PLATE): inactive; negative | mutagenic call (Test System: AMES SALMONELLA TYPHIMURIUM, Strain/Indicator: TA1535, Metabolic Activation: RAT, LIVER, S-9, AROCLOR 1254, Method: STANDARD PLATE): inactive; negative | mutagenic call (Test System: AMES SALMONELLA TYPHIMURIUM, Strain/Indicator: TA1538, Metabolic Activation: NONE, Method: STANDARD PLATE): inactive; negative | mutagenic call (Test System: AMES SALMONELLA TYPHIMURIUM, Strain/Indicator: TA1538, Metabolic Activation: RAT, LIVER, S-9, AROCLOR 1254, Method: STANDARD PLATE): inactive; negative | mutagenic call (Test System: UDS RAT HEPATOCYTES, Strain/Indicator: THY INCORP, Metabolic Activation: NONE): inactive; negative

O=[N+]([O-])c1ccccc1SSC(Cl)=C(Cl)Cl
mutagenic call (Test System: AMES SALMONELLA TYPHIMURIUM, Strain/Indicator: TA100(DNP6), Metabolic Activation: NONE, Method: PREINCUBATION): active; positive | mutagenic call (Test System: AMES SALMONELLA TYPHIMURIUM, Strain/Indicator: TA100(NR), Metabolic Activation: NONE, Method: PREINCUBATION): active; positive

Nc1c2ccccc2cc2ccccc12
mutagenic call (Test System: AMES SALMONELLA TYPHIMURIUM, Strain/Indicator: TA98, Metabolic Activation: RAT, LIVER, S-9, AROCLOR 1254 (2%), Method: STANDARD PLATE): active; positive | mutagenic call (Test System: AMES SALMONELLA TYPHIMURIUM, Strain/Indicator: TA98, Metabolic Activation: RAT, LIVER, S-9, AROCLOR 1254 (4%), Method: STANDARD PLATE): active; positive | mutagenic call (Test System: AMES SALMONELLA TYPHIMURIUM, Strain/Indicator: TA100, Metabolic Activation: RAT, LIVER, S-9, AROCLOR 1254 (2%), Method: STANDARD PLATE): active; positive | mutagenic call (Test System: AMES SALMONELLA TYPHIMURIUM, Strain/Indicator: TA1535, Metabolic Activation: RAT, LIVER, S-9, AROCLOR 1254 (2%), Method: STANDARD PLATE): inactive; negative | mutagenic call (Test System: AMES SALMONELLA TYPHIMURIUM, Strain/Indicator: TA1537, Metabolic Activation: RAT, LIVER, S-9, AROCLOR 1254 (2%), Method: STANDARD PLATE): active; positive

[U]
mutagenic call (End Point: In vitro chromosomal aberrations, Test System: Human colon tumor line LT97, Metabolic Activation: None, Method: 24 color FISH): active; positive (breaks at tumor-relevant chromosomes 5, 12, and 17); uranium and nitri

C=CCNc1ccccc1.C=CCNc1ccccc1.C=CCNc1ccccc1.[Cl-].[Cl-].[Rh].[Rh]
mutagenic call (Test System: AMES SALMONELLA TYPHIMURIUM, Strain/Indicator: TA92, Metabolic Activation: NONE, Method: STANDARD PLATE): inactive; negative
